Results from ChEMBL document CHEMBL4811216, “Chemotherapy for human schistosomiasis: how far have we come? What's new? Where do we go from here?” (RSC Med Chem, 2020).

Key:
Schistosoma mansoni [1] = assay: Antischistosomal activity against adult Schistosoma mansoni Puerto Rican incubated for 72 hrs by microscopic method; format: functional, organism-based
Schistosoma mansoni [2] = assay: Antischistosomal activity against Schistosoma mansoni Puerto Rican schistosomula assessed as effect on worm phenotype measured after 72 hrs; format: functional, organism-based
Schistosoma mansoni [3] = assay: Antischistosomal activity against Schistosoma mansoni Puerto Rican schistosomula assessed as effect on worm motility measured after 72 hrs; format: functional, organism-based
Schistosoma mansoni [4] = assay: Antischistosomal activity against juvenile Schistosoma mansoni Puerto Rican incubated for 72 hrs by microscopic method; format: functional, organism-based
Schistosoma mansoni [5] = assay: Potentiation of praziquantel-induced antischistosomal activity against Schistosoma mansoni infected in Swiss albino mouse assessed as intestinal egg burden at 20 mg/kg, po administered for 5 days (reference value: 67%); format: functional; conditions: time 5 day
Schistosoma mansoni [6] = assay: Antischistosomal activity against female Schistosoma mansoni assessed as worm killing effect at 100 uM measured after 24 hrs by phase-contrast microscopy relative to control; format: functional
Schistosoma mansoni [7] = assay: Potentiation of praziquantel-induced antischistosomal activity against Schistosoma mansoni infected in Swiss albino mouse assessed as worm burden at 20 mg/kg, po administered for 5 days (reference value: 60%); format: functional; conditions: time 5 day
Schistosoma mansoni [8] = assay: Antischistosomal activity against Schistosoma mansoni assessed as worm killing effect at 100 uM measured after 24 hrs by phase-contrast microscopy relative to control; format: functional
Schistosoma mansoni [9] = assay: Antischistosomal activity against male Schistosoma mansoni assessed as worm killing effect at 100 uM measured after 24 hrs by phase-contrast microscopy relative to control; format: functional
Schistosoma mansoni [10] = assay: Antischistosomal activity against Schistosoma mansoni infected in Swiss albino mouse assessed as reduction in worm burden at 20 mg/kg, po administered for 5 days relative to control; format: functional; design: scale not given: the % may be the effect or the level left; conditions: time 5 day
Schistosoma mansoni [11] = assay: Antischistosomal activity against Schistosoma mansoni infected in Swiss albino mouse assessed as reduction in intestinal tissue egg burden at 20 mg/kg, po administered for 5 days relative to control; format: functional; design: scale not given: the % may be the effect or the level left; conditions: time 5 day
Schistosoma mansoni [12] = assay: Antischistosomal activity against Schistosoma mansoni LE larva at […] measured within 48 hrs by inverted microscopic method relative to control; format: functional; conditions: dose 2.5 µg/ml
Schistosoma mansoni [13] = assay: Antischistosomal activity against adult Schistosoma mansoni LE assessed as worm mortality at 100 ug/ml measured after 96 hrs by inverted microscopic method relative to control; format: functional
Schistosoma mansoni [14] = assay: Antischistosomal activity against adult Schistosoma mansoni LE assessed as worm mortality measured after 96 hrs by inverted microscopic method; format: functional, organism-based
Schistosoma mansoni [15] = assay: Antischistosomal activity against Schistosoma mansoni LE infected in BALb/C mouse assessed as reduction in worm burden at 400 mg/kg, po administered as single dose and measured after 15 days relative to control; format: functional; design: scale not given: the % may be the effect or the level left; conditions: time 15 day
Schistosoma mansoni [16] = assay: Antischistosomal activity against Schistosoma mansoni infected in NMRI mouse assessed as reduction in female worm burden at 400 mg/kg, po measured after 21 days relative to control; format: functional; design: scale not given: the % may be the effect or the level left; conditions: time 21 day
Schistosoma mansoni [17] = assay: Antischistosomal activity against adult Schistosoma mansoni assessed as worm mortality at 10 uM measured up to 72 hrs by microscopic method relative to control; format: functional; conditions: time hrs <=72
Schistosoma mansoni [18] = assay: Antischistosomal activity against Schistosoma mansoni infected in NMRI mouse assessed as reduction in total worm burden at 400 mg/kg, po measured after 21 days relative to control; format: functional; design: scale not given: the % may be the effect or the level left; conditions: time 21 day
Schistosoma mansoni [19] = assay: Antischistosomal activity against Schistosoma mansoni NTS assessed as worm mortality at 10 uM measured up to 72 hrs by microscopic method relative to control; format: functional; conditions: time hrs <=72
Schistosoma mansoni [20] = assay: Antischistosomal activity against adult Schistosoma mansoni measured up to 72 hrs by microscopic method; format: functional, organism-based
Schistosoma mansoni [21] = assay: Antischistosomal activity against Schistosoma mansoni at 50 uM measured after 120 hrs relative to control; format: functional
Schistosoma mansoni [22] = assay: Antischistosomal activity against Schistosoma mansoni BH infected in Swiss Webster mouse assessed as worm burden reduction at 100 mg/kg, po administered for 5 consecutive days and measured 15 days post-treatment (reference value: 19.8%); format: functional; design: scale not given: the % may be the effect or the level left; conditions: time 15 day
Schistosoma mansoni [23] = assay: Antischistosomal activity against Schistosoma mansoni LE assessed as worm mortality at 20 uM incubated for 72 hrs by microscopic method relative to control; format: functional
Schistosoma mansoni [24] = assay: Antischistosomal activity against Schistosoma mansoni LE assessed as worm vitality at 20 uM incubated for 24 hrs by microscopic method relative to control; format: functional
Schistosoma mansoni [25] = assay: Antischistosomal activity against male Schistosoma mansoni LE incubated for 24 hrs by MTT assay; format: functional
Schistosoma mansoni [26] = assay: Antischistosomal activity against female Schistosoma mansoni LE incubated for 24 hrs by MTT assay; format: functional
CHO-K1 = assay: Cytotoxicity against CHO-K1 cells incubated for 24 hrs by colorimetric assay; format: functional, cell-based; conditions: Cricetulus griseus, CHO-K1, 24 h

In the case of CC1(C)CCC[C@]2(C)C(CC[C@@](C)(O)/C=C/c3ccc(F)cc3)[C@](C)(O)CC[C@@H]12 (some centres not stated), the IC50 (Schistosoma mansoni [1]) is reported as 9.4 µM, the IC50 (Schistosoma mansoni [2]) is reported as < 2 µM and the IC50 (Schistosoma mansoni [3]) is reported as < 2 µM. For the same compound, the IC50 (Schistosoma mansoni [4]) was < 2 µM.

With Brc1ccc(-c2c[nH]c(-c3ccccn3)n2)cc1 the Activity (Schistosoma mansoni [5]) was 83%, the Activity (Schistosoma mansoni [6]) was 0% and the Activity (Schistosoma mansoni [7]) was 96%. The Activity (Schistosoma mansoni [8]) was 56%, the Activity (Schistosoma mansoni [9]) was 100% and the Activity (Schistosoma mansoni [10]) was 29%. The Activity (Schistosoma mansoni [11]) was 35%.

With O=C1c2ccccc2C(=O)N1Nc1nc(-c2ccc(Cl)cc2Cl)cs1 the mortality at […] (Schistosoma mansoni [12]) was 100%, the mortality at 100 µg/mL (Schistosoma mansoni [13]) was 100% and the EC50 (Schistosoma mansoni [14]) was 50.6 µM. For the same compound, the Activity (Schistosoma mansoni [15]) was 85%.

In the case of CCNCCNc1cc(-c2ccc(Cl)cc2)c(C#N)c2nc3ccccc3n12, the Activity (Schistosoma mansoni [16]) is reported as 61.3%, the mortality at 10 µM (Schistosoma mansoni [17]) is reported as > 60% and the Activity (Schistosoma mansoni [18]) is reported as 58.7%. For the same compound, the mortality at 10 µM (Schistosoma mansoni [19]) was > 70% and the IC50 (Schistosoma mansoni [20]) was 2.44 µM.

CN(Nc1ccc(Cl)cc1)C1NC(=O)N(Cc2ccccc2)C1=S (configuration not stated) gave an Activity (Schistosoma mansoni [21]) of 100% and an Activity (Schistosoma mansoni [22]) of 70.5%.

For COc1cc(OC)c(/C=C2\NC(=O)N(Cc3c(F)cccc3Cl)C2=S)c(OC)c1, the Activity (Schistosoma mansoni [23]) was 100% and the Activity (Schistosoma mansoni [24]) was 100%.

In the case of C=CC(C)(C)c1cc(/C=C/C(=O)c2ccc(O)cc2)c(OC)cc1O [LICOAGROCHACONE A], the LC50 (Schistosoma mansoni [25]) is reported as 9.52 µM, the LC50 (Schistosoma mansoni [26]) is reported as 9.12 µM and the IC50 (CHO-K1) is reported as 508 µM.
